Source: patent US20260365628A1, “SUBSTITUTED 3,4-DIHYDROQUINOLINONE INHIBITORS OF TSHR” (Septerna, Inc., priority 2022, published 2026)
pIC50: −log10 of the molar value.

biological target: T1, hTSHR (Homo sapiens, UniProt P16473); assay: hTSHR TR-FRET cAMP Assay (inhibition of M22-stimulated cAMP production); assay type: cell-based; settings: not given
T1 construct: expressed in transfected cells
Description: Assays were performed using Expi293F Inducible cells (Invitrogen) stably expressing hTSHR via a pcZeo TetO DNA plasmid. Cell lines were maintained in suspension in Expi293 Expression Medium (ThermoFisher Scientific) supplemented with 10 µg/mL Blasticidin and 10 μg/mL Zeocin and incubated at 37° C., 8% CO2, with shaking. hTSHR cells were incubated overnight at 32° C., 5% C02, with shaking, but […] Doxycycline. Assay-ready aliquots were prepared by harvesting each cell type separately 24-hours post-induction. Cells were pelleted at 4° C., resuspended in Expi293 Expression media+10% DMSO, aliquoted, and kept frozen at −80° C. until ready for use.
For the assay, concentration-response curves of test and reference compounds were added to 384-well plates using an Echo 650 liquid handler (Beckman Coulter) and backfilled with DMSO to a final concentration of 0.5%. cAMP was measured using the cisbio cAMP Gs dynamic HTRF kit (PerkinElmer) according to manufacturer instructions. Aliquots of frozen hTSHR cells were quickly thawed and washed with phosphate-buffered saline (Sigma-Aldrich) to remove media and DMSO. The cells were resuspended in kit-supplied Stimulation Buffer at 0.8×10^6 cells/mL. 7.5 μL of the hTSHR cell dilution were added to each well of the assay plate and incubated with the compounds for 15 minutes in a 37 C, 0% CO2 incubator. 2.5 μL of Vehicle control or an EC80 concentration of recombinant human anti-TSHR antibody (M22, Creative Biolabs) was added to stimulate cAMP production. Cells were incubated with for 30 minutes at 37° C., 0% CO2. Following this incubation, the cells were lysed and accumulated cAMP was detected through the addition of kit-supplied lysis buffer containing d2-reagent and Eu-cryptate antibody. The HTRF signal was quantified using a BMG Clariostar plate reader optimized for HTRF assays. The HTRF ratio was determined by dividing the signal output at […] by that at 620 nm. Data were normalized to the signal produced by the EC80 concentration of either M22 or FSH (0% inhibition) and vehicle (no agonist, 100% inhibition).

T1 sequence (P16473 21-764): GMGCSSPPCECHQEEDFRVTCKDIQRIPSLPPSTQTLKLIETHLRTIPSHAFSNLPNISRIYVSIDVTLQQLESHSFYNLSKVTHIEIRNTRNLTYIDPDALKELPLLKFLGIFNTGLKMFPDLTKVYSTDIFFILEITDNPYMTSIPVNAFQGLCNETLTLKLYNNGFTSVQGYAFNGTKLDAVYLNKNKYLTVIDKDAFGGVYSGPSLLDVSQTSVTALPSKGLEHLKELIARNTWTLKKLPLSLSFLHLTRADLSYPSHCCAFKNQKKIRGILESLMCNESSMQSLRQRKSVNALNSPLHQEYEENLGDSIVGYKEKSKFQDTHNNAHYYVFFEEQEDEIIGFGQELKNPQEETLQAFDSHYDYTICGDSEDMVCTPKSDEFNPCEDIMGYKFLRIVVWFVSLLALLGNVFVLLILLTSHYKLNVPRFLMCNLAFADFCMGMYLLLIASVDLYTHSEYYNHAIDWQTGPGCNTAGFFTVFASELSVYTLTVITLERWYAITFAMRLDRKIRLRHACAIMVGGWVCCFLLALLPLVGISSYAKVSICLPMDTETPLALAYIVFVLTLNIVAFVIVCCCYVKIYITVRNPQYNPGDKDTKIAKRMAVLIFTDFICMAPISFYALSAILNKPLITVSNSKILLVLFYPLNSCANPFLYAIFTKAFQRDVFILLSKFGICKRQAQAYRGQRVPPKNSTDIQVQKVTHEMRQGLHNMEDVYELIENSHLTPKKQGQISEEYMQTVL

For `CC(C)(C)NC(=O)Oc1ccc2c(c1)CCC(=O)N2Cc1ccccc1` [Example 63], the pIC50 was less than 6.00.

same assay, conditions: Expi293F Inducible cells stably expressing hTSHR; cAMP HTRF; stimulated with EC80 of anti-TSHR antibody M22; 15 min compound preincubation, 30 min at 37° C.; read-out: Activity (IC50 bins)

Compared with `C[C@@H](c1cccc(C(F)(F)F)c1)N1C(=O)COc2cc(NC(=O)NC(C)(C)C)ccc21` [Example 62, (S)-1-(tert-butyl)-3-(3-oxo-4-(1-(3-(trifluoromethyl)phenyl)ethyl)-3,4-dihydro-2H-benzo[b][1,4]oxazin-7-yl)urea], `CC(C)(C)NC(=O)Nc1ccc2c(c1)OCC(=O)N2Cc1cccc(C(O)C(F)(F)F)c1` (stereo not drawn) [Example 77, 1-(tert-butyl)-3-(3-oxo-4-(3-(2,2,2-trifluoro-1-hy-droxyethyl)benzyl)-3,4-dihydro-2H-benzo[b][1,4]oxa-zin-7-yl)urea] is lower in pIC50: greater than 7.00 for the first, 6.00 to 7.00 for the second.

Compared with `CC(C)(C)NC(=O)Nc1ccc2c(c1)CCC(=O)N2CC1CCCCC1` [Example 64, 1-(tert-butyl)-3-(1-(cyclohexylmethyl)-2-oxo-1,2,3,4-tetrahydroquinolin-6-yl)urea], `CC(C)(C)NC(=O)Nc1cc2c(cc1F)N(Cc1ccccc1)C(=O)CC2` [Example 65, 1-(1-benzyl-7-fluoro-2-oxo-1,2,3,4-tetrahydroquinolin-6-yl)-3-(tert-butyl)urea] is higher in pIC50: less than 6.00 for the first, 6.00 to 7.00 for the second. The second is the more potent here.

`CC(C)(C)NC(=O)Nc1cc2c(cc1Cl)N(Cc1ccccc1)C(=O)CC2` [Example 66, 1-(1-benzyl-7-chloro-2-oxo-3,4-dihydroquinolin-6-yl)-3-tert-butylurea] and `CC(C)(C)NC(=O)Nc1cc(F)c2c(c1)CCC(=O)N2Cc1ccccc1` [Example 69, 1-(1-benzyl-8-fluoro-2-oxo-1,2,3,4-tetrahydroquinolin-6-yl)-3-(tert-butyl)urea] fall in the same range of pIC50: 6.00 to 7.00 for the first, 6.00 to 7.00 for the second.

Compared with `CC(C)(C)NC(=O)Nc1ccc2c(n1)CCC(=O)N2Cc1ccccc1` [Example 67, 1-(5-benzyl-6-oxo-5,6,7,8-tetrahydro-1,5-naphthyridin-2-yl)-3-(tert-butyl)urea], `CC(C)(C)NC(=O)Nc1ccc2c(c1)ncc(=O)n2Cc1ccccc1` [Example 68, 1-(1-benzyl-2-oxo-1,2-dihydroquinoxalin-6-yl)-3-(tert-butyl)urea] is higher in pIC50: 6.00 to 7.00 for the first, greater than 7.00 for the second. The second is the more potent here.

`CN1Cc2cc(NC(=O)NC(C)(C)C)ccc2N(Cc2cccc(C(F)(F)F)c2)C1=O` [Example 70, 1-(tert-butyl)-3-(3-methyl-2-oxo-1-(3-(trifluoromethyl)benzyl)-1,2,3,4-tetrahydroquinazolin-6-yl)urea] and `C[C@H]1Oc2cc(NC(=O)NC(C)(C)C)ccc2N(Cc2cccc(C(F)(F)F)c2)C1=O` [Example 81] cannot be ordered by pIC50: greater than 7.00 for the first, greater than 7.00 for the second.

`CC(C)(C)NC(=O)Nc1ccc2c(c1)OCC(=O)N2Cc1cccc(C(F)F)c1` [Example 71, 1-(tert-butyl)-3-(4-(3-(difluoromethyl)benzyl)-3-oxo-3,4-dihydro-2H-benzo[b][1,4]oxazin-7-yl)urea] and `CC(C)(C)NC(=O)Nc1ccc2c(c1)OCC(=O)N2Cc1cccc([C@@H](O)C(F)(F)F)c1` [Example 78, (R)-1-(tert-butyl)-3-(3-oxo-4-(3-(2,2,2-trifluoro-1-hydroxyethyl)ben-zyl)-3,4-dihydro-2H-benzo[b][1,4]oxa-zin-7-yl)urea] fall in the same range of pIC50: 6.00 to 7.00 for the first, 6.00 to 7.00 for the second.

First: CC(C)(C)NC(=O)Nc1ccc2c(c1)OCC(=O)N2Cc1cccc(CO)c1 [Example 72, 1-(tert-butyl)-3-(4-(3-(hydroxy-methyl)ben-zyl)-3-oxo-3,4-dihydro-2H-benzo[b][1,4]oxa-zin-7-yl)urea]
Second: CC(C)(C)NC(=O)Nc1ccc2c(c1)OCC(=O)N2Cc1cccc(C2CC2)c1 [Example 73, 1-(tert-butyl)-3-(4-(3-cyclopropylbenzyl)-3-oxo-3,4-dihydro-2H-benzo[b][1,4]oxa-zin-7-yl)urea]
The pIC50 of the first is lower: less than 6.00 for the first, 6.00 to 7.00 for the second. The second is the more potent here.

`CC(C)(C)NC(=O)Nc1ccc2c(c1)OCC(=O)N2Cc1cccc(OC(F)(F)F)c1` [Example 74, 1-(tert-butyl)-3-(3-oxo-4-(3-(tri-fluoromethoxy)ben-zyl)-3,4-dihydro-2H-benzo[b][1,4]oxa-zin-7-yl)urea] and `CC(C)(C)NC(=O)Nc1ccc2c(c1)OCC(=O)N2Cc1cccc([C@H](O)C(F)(F)F)c1` [Example 79, (S)-1-(tert-butyl)-3-(3-oxo-4-(3-(2,2,2-trifluoro-1-hy-droxyethyl)benzyl)-3,4-dihydro-2H-benzo[b][1,4]oxa-zin-7-yl)urea] fall in the same range of pIC50: 6.00 to 7.00 for the first, 6.00 to 7.00 for the second.

`CC(C)Oc1cccc(CN2C(=O)COc3cc(NC(=O)NC(C)(C)C)ccc32)c1` [Example 75, 1-(tert-butyl)-3-(4-(3-isopropoxybenzyl)-3-oxo-3,4-dihydro-2H-benzo[b][1,4]oxa-zin-7-yl)urea] and `CC(C)(C)NC(=O)Nc1ccc2c(c1)OCC(=O)N2Cc1cccc(C(O)CC(F)(F)F)c1` (stereo not drawn) [Example 80, 1-(tert-butyl)-3-(3-oxo-4-(3-(3,3,3-trifluoro-1-hydroxypropyl)ben-zyl)-3,4-dihydro-2H-benzo[b][1,4]oxa-zin-7-yl)urea] fall in the same range of pIC50: 6.00 to 7.00 for the first, 6.00 to 7.00 for the second.

Compared with `CC(C)(C)NC(=O)Nc1ccc2c(c1)OCC(=O)N2Cc1cccc2cn[nH]c12` [Example 76, 1-(4-((1H-indazol-7-y1)methyl)-3-oxo-3,4-dihydro-2H-benzo[b][1,4]oxa-zin-7-yl)-3-(tert-butyl)urea], `C[C@H]1Oc2cc(NC(=O)NC(C)(C)C)ccc2N(Cc2cc(Cl)ccc2C#N)C1=O` [Example 85, (R)-1-(tert-butyl)-3-(4-(5-chloro-2-cyanobenzyl)-2-methyl-3-oxo-3,4-dihydro-2H-benzo[b][1,4]oxazin-7-yl)urea] is higher in pIC50: less than 6.00 for the first, 6.00 to 7.00 for the second.

First: C[C@@H]1Oc2cc(NC(=O)NC(C)(C)C)ccc2N(Cc2cccc(C(F)(F)F)c2)C1=O [Example 82]
Second: C[C@H]1Oc2cc(NC(=O)NC(C)(C)C)ccc2N(Cc2cc(C(F)(F)F)ccc2C#N)C1=O [Example 83, (R)-1-(tert-butyl)-3-(4-(2-cyano-5-(trifluoromethyl)benzyl)-2-methyl-3-oxo-3,4-dihydro-2H-benzo[b][1,4]oxazin-7-yl)urea]
The pIC50 of the first is higher: 6.00 to 7.00 for the first, less than 6.00 for the second. The first is the more potent here.

First: C[C@@H]1Oc2cc(NC(=O)NC(C)(C)C)ccc2N(Cc2cc(C(F)(F)F)ccc2C#N)C1=O [Example 84, (S)-1-(tert-butyl)-3-(4-(2-cyano-5-(trifluoromethyl)benzyl)-2-methyl-3-oxo-3,4-dihydro-2H-benzo[b][1,4]oxazin-7-yl)urea]
Second: C[C@@H]1Oc2cc(NC(=O)NC(C)(C)C)ccc2N(Cc2cc(Cl)ccc2C#N)C1=O [Example 86, (S)-1-(tert-butyl)-3-(4-(5-chloro-2-cyanobenzyl)-2-methyl-3-oxo-3,4-dihydro-2H-benzo[b][1,4]oxazin-7-yl)urea]
The pIC50 of the first is higher: 6.00 to 7.00 for the first, less than 6.00 for the second. The first is the more potent here.

`Cc1ccc(C#N)c(CN2C(=O)[C@@H](C)Oc3cc(NC(=O)NC(C)(C)C)ccc32)c1` [Example 87, (R)-1-(tert-butyl)-3-(4-(2-cyano-5-methylbenzyl)-2-methyl-3-oxo-3,4-dihydro-2H-benzo[b][1,4]oxazin-7-yl)urea] and `Cc1ccc(C#N)c(CN2C(=O)[C@H](C)Oc3cc(NC(=O)NC(C)(C)C)ccc32)c1` [Example 88, (S)-1-(tert-butyl)-3-(4-(2-cyano-5-methylbenzyl)-2-methyl-3-oxo-3,4-dihydro-2H-benzo[b][1,4]oxazin-7-yl)urea] cannot be ordered by pIC50: less than 6.00 for the first, less than 6.00 for the second.

`CC(C)(C)NC(=O)Nc1ccc2c(c1)ncc(=O)n2Cc1cccc(Cl)c1` [Example 89, 1-(tert-butyl)-3-(1-(3-chlorobenzyl)-2-oxo-1,2-dihydroquinoxalin-6-yl)urea] and `CC(C)(C)NC(=O)Nc1ccc2c(c1)ncc(=O)n2Cc1cccc(C(F)(F)F)c1` [Example 90, 1-(tert-butyl)-3-(2-oxo-1-(3-(trifluoro-methyl)benzyl)-1,2-di-hydro-quinoxalin-6-yl)urea] fall in the same range of pIC50: 6.00 to 7.00 for the first, 6.00 to 7.00 for the second.

`CC(C)(C)NC(=O)Nc1ccc2c(c1)ncc(=O)n2Cc1cccc(OC(F)(F)F)c1` [Example 91, 1-(tert-butyl)-3-(2-oxo-1-(3-(trifluoro-methoxy)benzyl)-1,2-di-hydro-quinoxalin-6-yl)urea] and `CC(C)(C)NC(=O)Nc1ccc2c(c1)ncc(=O)n2Cc1cccc(CC(F)(F)F)c1` [Example 94, 1-(tert-butyl)-3-(2-oxo-1-(3-(2,2,2-trifluoro-ethyl)benzyl)-1,2-dihydro-quinoxalin-6-yl)urea] fall in the same range of pIC50: 6.00 to 7.00 for the first, 6.00 to 7.00 for the second.

Compared with `CC(C)(C)NC(=O)Nc1ccc2c(c1)ncc(=O)n2Cc1cccc(CCC(F)(F)F)c1` [Example 92, 1-(tert-butyl)-3-(2-oxo-1-(3-(3,3,3-trifluoro-propyl)benzyl)-1,2-dihydro-quinoxalin-6-yl)urea], `CC(C)(C)NC(=O)Nc1ccc2c(c1)ncc(=O)n2Cc1cccc(CCCC(F)(F)F)c1` [Example 93, 1-(tert-butyl)-3-(2-oxo-1-(3-(4,4,4-trifluoro-butyl)benzyl)-1,2-dihydro-quinoxalin-6-yl)urea] is higher in pIC50: 6.00 to 7.00 for the first, greater than 7.00 for the second. The second is the more potent here.
